Tested on: P12-Ichikawa
Test: cell viability relative to DMSO control; higher = less cytotoxic
Conditions: 48 h
In short: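 Viability was expressed as a per-plate percentage of DMSO wells, with cell-free wells as background. Leukemia cells (NOMO1 or SEM at 500 cells/well, P12-Ichikawa at 1000 cells/well) were adapted for at least four passages in each medium and seeded in 1536-well plates (5 μl). Library compounds in DMSO were pin-dosed over an 11-point threefold series from 47 μM to 0.79 nM, and CellTiter-Glo One luminescence was read after 48 h at 37°C.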

[1] = HPLM + 10% dialyzed FBS, 0.000781 µM
[2] = HPLM + 10% dialyzed FBS, 0.00234 µM
[3] = HPLM + 10% dialyzed FBS, 0.00702 µM
[4] = HPLM + 10% dialyzed FBS, 0.0211 µM
[5] = HPLM + 10% dialyzed FBS, 0.0632 µM
[6] = HPLM + 10% dialyzed FBS, 0.19 µM
[7] = HPLM + 10% dialyzed FBS, 0.569 µM
[8] = HPLM + 10% dialyzed FBS, 1.71 µM
[9] = HPLM + 10% dialyzed FBS, 5.12 µM
[10] = HPLM + 10% dialyzed FBS, 15.4 µM
[11] = HPLM + 10% dialyzed FBS, 46.1 µM
[12] = RPMI 5 mM glucose + 10% FBS, 0.000781 µM
[13] = RPMI 5 mM glucose + 10% FBS, 0.00234 µM
[14] = RPMI 5 mM glucose + 10% FBS, 0.00702 µM
[15] = RPMI 5 mM glucose + 10% FBS, 0.0211 µM
[16] = RPMI 5 mM glucose + 10% FBS, 0.0632 µM
[17] = RPMI 5 mM glucose + 10% FBS, 0.19 µM
[18] = RPMI 5 mM glucose + 10% FBS, 0.569 µM
[19] = RPMI 5 mM glucose + 10% FBS, 1.71 µM
[20] = RPMI 5 mM glucose + 10% FBS, 5.12 µM
[21] = RPMI 5 mM glucose + 10% FBS, 15.4 µM
[22] = RPMI 5 mM glucose + 10% FBS, 46.1 µM
[23] = RPMI 5 mM glucose + 10% dialyzed FBS, 0.000781 µM
[24] = RPMI 5 mM glucose + 10% dialyzed FBS, 0.00234 µM
[25] = RPMI 5 mM glucose + 10% dialyzed FBS, 0.00702 µM
[26] = RPMI 5 mM glucose + 10% dialyzed FBS, 0.0211 µM
[27] = RPMI 5 mM glucose + 10% dialyzed FBS, 0.0632 µM
[28] = RPMI 5 mM glucose + 10% dialyzed FBS, 0.19 µM
[29] = RPMI 5 mM glucose + 10% dialyzed FBS, 0.569 µM
[30] = RPMI 5 mM glucose + 10% dialyzed FBS, 1.71 µM
[31] = RPMI 5 mM glucose + 10% dialyzed FBS, 5.12 µM
[32] = RPMI 5 mM glucose + 10% dialyzed FBS, 15.4 µM
[33] = RPMI 5 mM glucose + 10% dialyzed FBS, 46.1 µM

Row | Structure (SMILES) | cell viability [1] [%] | cell viability [2] [%] | cell viability [3] [%] | cell viability [4] [%] | cell viability [5] [%] | cell viability [6] [%] | cell viability [7] [%] | cell viability [8] [%] | cell viability [9] [%] | cell viability [10] [%] | cell viability [11] [%] | cell viability [12] [%] | cell viability [13] [%] | cell viability [14] [%] | cell viability [15] [%] | cell viability [16] [%] | cell viability [17] [%] | cell viability [18] [%] | cell viability [19] [%] | cell viability [20] [%] | cell viability [21] [%] | cell viability [22] [%] | cell viability [23] [%] | cell viability [24] [%] | cell viability [25] [%] | cell viability [26] [%] | cell viability [27] [%] | cell viability [28] [%] | cell viability [29] [%] | cell viability [30] [%] | cell viability [31] [%] | cell viability [32] [%] | cell viability [33] [%]
1 | COc1cc2nccc(Oc3ccc(NC(=O)C4(C(=O)Nc5ccc(F)cc5)CC4)cc3)c2cc1OC | 114 | 91.5 | 122 | 111 | 115 | 111 | 118 | 113 | 96.3 | 71.7 | 34 | 112 | 112 | 116 | 117 | 119 | 116 | 112 | 114 | 106 | 82.5 | 19.7 | 106 | 118 | 120 | 121 | 123 | 124 | 113 | 113 | 101 | 60.5 | 28.9
2 | COc1ccc(Cc2nccc3cc(OC)c(OC)cc23)cc1OC | 122 | 120 | 117 | 120 | 125 | 122 | 119 | 116 | 115 | 107 | 96.5 | – | – | – | – | – | – | – | – | – | – | – | 121 | 114 | 126 | 126 | 123 | 126 | 121 | 119 | 105 | 111 | 78.5
3 | COc1cc2nccc(Oc3ccc(NC(=O)Nc4cc(C)on4)c(Cl)c3)c2cc1OC | 121 | 131 | 115 | 122 | 122 | 115 | 126 | 119 | 107 | 113 | 40.5 | 124 | 121 | 114 | 129 | 118 | 124 | 120 | 122 | 110 | 106 | 36.7 | – | – | – | – | – | – | – | – | – | – | –
4 | CC(C)(C)/[N+]([O-])=C/c1ccc([S+](=O)([O-])[O][Na])cc1[S+](=O)([O-])[O][Na] | 110 | 114 | 112 | 122 | 117 | 131 | 127 | 125 | 121 | 119 | 133 | 108 | 96.5 | 108 | 111 | 120 | 123 | 127 | 122 | 126 | 124 | 122 | 108 | 114 | 114 | 121 | 113 | 120 | 124 | 123 | 120 | 119 | 116
5 | CCOC(=O)C/1=C(C)/NC(=S)NC1C2=CC=CC(=C2)O (stereo unspecified) | 110 | 115 | 115 | 118 | 125 | 59 | 9.07 | 6.6 | 5.26 | 6.98 | 5.13 | 106 | 110 | 128 | 128 | 112 | 42.6 | 11 | 8.73 | 7.18 | 8.04 | 9.16 | 102 | 102 | 113 | 113 | 120 | 93.4 | 21 | 14.2 | 7.5 | 9.98 | 11.8
6 | CNC(=O)[C@H](Cc1ccccc1)NC(=O)[C@H](CC(C)C)[C@H](CSc1cccs1)C(=O)NO | 86.3 | 86.4 | 86.3 | 98.3 | 87.4 | 95.1 | 89.7 | 82.9 | 81.9 | 73.8 | 66.8 | 83.3 | 87.2 | 78.9 | 87 | 78 | 82.8 | 88.1 | 82.9 | 71 | 59.2 | 52.6 | 85.3 | 89.7 | 82.2 | 88.3 | 84.3 | 91 | 90.1 | 79.5 | 72.5 | 63.5 | 53
7 | O=C1\C=C(/OC2=C1C=CC=C2C3=CC=CC=C3)N4CCOCC4 | 88.3 | 93 | 95.2 | 91.3 | 96.3 | 90.1 | 94.4 | 86.5 | 87.6 | 85.3 | 87.1 | 89.1 | 84.5 | 87.6 | 89.8 | 91.5 | 86 | 75.4 | 76.8 | 81.2 | 74.1 | 67.9 | 86.7 | 84.4 | 84.1 | 84.6 | 89.7 | 84.1 | 86 | 77.2 | 82.4 | 80.3 | 74.1
8 | NC(=O)N1c2ccccc2CC(=O)c2ccccc21 | 115 | 116 | 121 | 125 | 124 | 138 | 129 | 128 | 132 | 127 | 134 | – | – | – | – | – | – | – | – | – | – | – | – | – | – | – | – | – | – | – | – | – | –
9 | CO[C@H]1C[C@@H]2CC[C@@H](C)[C@@](O)(O2)C(=O)C(=O)N2CCCC[C@H]2C(=O)O[C@H]([C@H](C)C[C@@H]2CC[C@@H](OP(C)(C)=O)[C@H](OC)C2)CC(=O)[C@H](C)/C=C(\C)[C@@H](O)[C@@H](OC)C(=O)[C@H](C)C[C@H](C)/C=C/C=C/C=C/1C | – | – | – | – | – | – | – | – | – | – | – | 119 | 138 | 121 | 126 | 118 | 97.7 | 122 | 96.3 | 88.4 | 100 | 81.4 | – | – | – | – | – | – | – | – | – | – | –
